These results are taken from PubChem BioAssay AID2060623 (Molecular Pharmacology Branch, DTP, NCI, 2025).

The subject of this assay is 227483-062-R1-J1-PDC complex spheroids with HUVEC/MSC, viability. Description: Anticancer human tumor 227483-062-R1-J1-PDC patient-derived pancreatic carcinoma cell line growth inhibition [CLK]. Conditions: for viability, T/C: stronger effect = lower value. From the text:
A high-throughput screen of multi-cell type tumor spheroids was designed to identify active combinations of […] and targeted small molecules. Complex spheroids include a stromal component modeled by human endothelial cells (HUVEC) and fibroblasts modeled by human mesenchymal stem cells (MSCs). The concentration ranges selected for each drug and investigational agent were based upon clinically achievable concentrations if the clinical Cmax of the agent was known.
Compounds. The drugs and investigational agents: cirtuvivint (SM08502; NSC835563), CC-671 (NSC850746), vemurafenib (NSC761431), tapotoclax (NSC804041), sotorasib (NSC818433), adagrasib (NSC831453), MRTX-1133 (NSC836407), BAY2416964 (NSC825713), copanlisib (NSC816437), inavolisib (NSC800729), abemaciclib (NSC768073), osimertinib (NSC779217), entinostat (NSC756642), eltanexor (KPT-8602, NSC794443), venetoclax (NSC766270), ceralasertib (NSC777638), bortezomib (NSC756655), olaparib (NSC753686), talazoparib (NSC767125), alisertib (NSC759677), peposertib (NSC802822), gemcitabine (NSC613327), 5-fluorouracil (NSC19893), SN-38 (NSC673596), oxaliplatin (NSC266046), paclitaxel (NSC125973), and doxorubicin (NSC123127), were obtained from the National Cancer Institute (NCI) Developmental Therapeutics Program Chemical Repository. The FDA-approved anticancer drug set is available from the Developmental Therapeutics Program at https://dtp.cancer.gov/organization/dscb/obtaining/available plates.htm. […] The stock solutions were prepared in dimethyl sulfoxide (DMSO, Sigma-Aldrich, St. Louis, MO, cat. D2650), except for the platinum complexes which were prepared in saline (Quality Biological, Gaithersburg, MD, cat. 114-055-101), at 800-fold the tested concentration and stored at -70 degrees C prior to their use. All drugs and investigational agents were tested over a range starting from a high concentration at or near the clinical Cmax and decreasing in half-log increments. If the clinical Cmax for an agent had not been determined, the highest concentration tested was 10 microM.
Cell Culture. All cells were maintained in an incubator at 37 degrees C and 5% CO2 with 95% humidity. The PDC lines were cultured according to standard operating procedures established by the NCI PDMR. Briefly, all PDCs were thawed and cultured in Matrigel-coated flasks prepared with a working solution of 1X Ham's F-12 nutrient mix, without supplementation (Invitrogen, Waltham, MA, cat. 11765054), 100 U/mL penicillin-streptomycin (Invitrogen, cat. 15140122), and 2.5% Matrigel (Corning Inc., Corning, NY, cat. 354248) for the first three passages. The 947758-054-R-J2-PDC line was cultured in 6B/Colon 1A media, which includes advanced DMEM/F-12 (Thermo Fisher Scientific, cat. 12634028), 10 mM HEPES (Thermo Fisher Scientific, cat. 15630080), 1X GlutaMAX supplement (Thermo Fisher Scientific, cat. 35050061), 0.1 mg/mL primocin (InvivoGen, cat. ant-pm-2), 10% defined fetal bovine serum, heat inactivated (HyClone Laboratories Inc., cat. SH30070.03HI), 1.25 mM N-Acetyl-L-cysteine (Sigma-Aldrich, cat. A9165), 10 mM nicotinamide (Sigma-Aldrich, cat. N0636), 1X B-27 supplement (Thermo Fisher Scientific, cat. 17504044), 1X N-2 supplement (Thermo Fisher Scientific, cat. 17502048), and 10 microM Y-27632 dihydrochloride (Tocris Bioscience, cat. 1254). The 876862-298-R-J1-PDC was cultured in 6E media, which includes all 6B/Colon 1A media components plus 50% L-WRN conditioned media (ATCC, cat. CRL-3276), 50 ng/mL recombinant human EGF recombinant protein (hEGF; Thermo Fisher Scientific, cat. PHG0311), 10 ng/mL recombinant human fibroblast growth factor 10 (hGFG-10; PeproTech, cat. 100-26), 1 ng/mL recombinant human fibroblast growth factor 2 (hFGF-2; PeproTech, cat. 100-18B), and 1 µM prostaglandin E2 (PGE2; Tocris, cat. 2296). The 227483-062-R1-J1-PDC line was cultured in Panc media, containing all 6E components except hFGF-2, with the addition of 500 nM SB-431542 (Selleckchem, cat. S1067) and 10 nM gastrin (Tocris, cat. 3006). […]

Where “and” joins values, the source holds several entries; their conditions need not be identical. Identical values can stand only once.
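Note: spheroids exposed to compounds for seven days before readout.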
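Throughout, for viability, T/C: percent of DMSO vehicle control luminescence as 100% viability.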

In general, IC50 refers to the concentration that gives 50% inhibition. Broadly, the viability, T/C is the ratio of treated to control. Take `COc1ccc([C@@H](O)c2cc(-c3ncnc4cc(N5CCOCC5)ccc34)c(F)cc2Cl)nn1` + CN1CCN(c2cc(C(=O)Nc3cc4cc(-c5cnn(C)c5)ccc4cn3)ccn2)CC1: the IC50 is over 10000 nM (curve of first compound, second compound 0.0316 µM); over 10000 nM (curve of first compound, second compound 0.1 µM); under 31.6 nM (curve of first compound, second compound 0.316 µM); under 31.6 nM (curve of first compound, second compound 1 µM); under 31.6 nM (curve of first compound, second compound 3.16 µM); under 31.6 nM (curve of first compound, second compound 10 µM). Further, the viability, T/C is 95.2% (second compound 0.0316 µM, first compound 0.0316 µM); 107% (second compound 0.0316 µM, first compound 0.1 µM); 115% (second compound 0.0316 µM, first compound 0.316 µM); 99% (second compound 0.0316 µM, first compound 1 µM); 75.7% (second compound 0.0316 µM, first compound 3.16 µM); 66.6% (second compound 0.0316 µM, first compound 10 µM). The viability, T/C is 60.8% (second compound 0.1 µM, first compound 0.0316 µM); 69.8% (second compound 0.1 µM, first compound 0.1 µM); 54.1% (second compound 0.1 µM, first compound 0.316 µM); 73.5% (second compound 0.1 µM, first compound 1 µM); 66.2% (second compound 0.1 µM, first compound 3.16 µM); 48.8% (second compound 0.1 µM, first compound 10 µM). Moreover, the viability, T/C is 5.56% (second compound 0.316 µM, first compound 0.0316 µM); 4.19% (second compound 0.316 µM, first compound 0.1 µM); 4.12% (second compound 0.316 µM, first compound 0.316 µM); 4.66% (second compound 0.316 µM, first compound 1 µM); 5.44% (second compound 0.316 µM, first compound 3.16 µM); 3.88% (second compound 0.316 µM, first compound 10 µM). The viability, T/C (second compound 1 µM, first compound 0.0316 µM) is 1.55%; the viability, T/C (second compound 1 µM, first compound 0.1 µM) was 3.72%; the viability, T/C (second compound 1 µM, first compound 0.316 µM) was 3.44%; the viability, T/C (second compound 1 µM, first compound 1 µM) is 2.14%; the viability, T/C (second compound 1 µM, first compound 3.16 µM) is 2.19%; the viability, T/C (second compound 1 µM, first compound 10 µM) is 1.68%. Also, the viability, T/C (second compound 3.16 µM, first compound 0.0316 µM) was 5.54%; the viability, T/C (second compound 3.16 µM, first compound 0.1 µM) was 3.34%; the viability, T/C (second compound 3.16 µM, first compound 0.316 µM) was 3.99%; the viability, T/C (second compound 3.16 µM, first compound 1 µM) was 3.31%; the viability, T/C (second compound 3.16 µM, first compound 3.16 µM) is 3.4%; the viability, T/C (second compound 3.16 µM, first compound 10 µM) is 2.14%. Further, the viability, T/C (second compound 10 µM, first compound 0.0316 µM) is 2.64%; the viability, T/C (second compound 10 µM, first compound 0.1 µM) was 1.93%; the viability, T/C (second compound 10 µM, first compound 0.316 µM) is 2.01%; the viability, T/C (second compound 10 µM, first compound 1 µM) is 1.95%; the viability, T/C (second compound 10 µM, first compound 3.16 µM) was 1.9%; the viability, T/C (second compound 10 µM, first compound 10 µM) is 1.68%.
Take `CCc1c2c(nc3ccc(O)cc13)-c1cc3c(c(=O)n1C2)COC(=O)[C@]3(O)CC`: the viability, T/C was 77.7% and 88.3% (compound 0.00316 µM); 94.4% and 86.2% (compound 0.01 µM); 79.4% and 58.8% (compound 0.0316 µM); 55.3% and 49% (compound 0.1 µM); 54.1% and 53% (compound 0.316 µM); 36.8% and 33.1% (compound 1 µM). Besides, the IC50 (curve of compound) is 207 nM and 71.7 nM.
For the compound `CC(Nc1ccc2c(c1)OCCn1cc(N3C(=O)OCC3C(F)F)nc1-2)C(N)=O` (stereo not given), the viability, T/C is, setting by setting: (compound 0.0316 µM) 89.1% and 95.7%; (compound 0.1 µM) 104% and 89.6%; (compound 0.316 µM) 82.3% and 76.5%; (compound 1 µM) 82.4% and 85.9%; (compound 3.16 µM) 69.8% and 72.3%; (compound 10 µM) 82.9% and 69.1%. Besides, the IC50 (curve of compound) is over 10000 nM.
As to `CC(=O)O[C@H]1C(=O)[C@@]2(C)[C@H]([C@H](OC(=O)c3ccccc3)[C@]3(O)C[C@H](OC(=O)[C@H](O)[C@@H](NC(=O)c4ccccc4)c4ccccc4)C(C)=C1C3(C)C)[C@]1(OC(C)=O)CO[C@@H]1C[C@@H]2O`, the viability, T/C reads like this: (compound 0.0316 µM) 37.1% and 25.6%; (compound 0.1 µM) 28.5% and 24%; (compound 0.316 µM) 28.2% and 29.5%; (compound 1 µM) 37.5% and 31.8%; (compound 3.16 µM) 50.2% and 38.9%; (compound 10 µM) 60.8% and 52.3%. Further, the IC50 (curve of compound) is under 31.6 nM.
Take `COC1C=CCC(C)C(C)S(=O)(=O)NC(=O)c2ccc3c(c2)N(CC2CCC21)CC1(CCCc2cc(Cl)ccc21)CO3` (stereo not given): the viability, T/C by setting is: (compound 0.0316 µM) 93.6% and 86.3%; (compound 0.1 µM) 93.9% and 81.1%; (compound 0.316 µM) 95.4% and 95.6%; (compound 1 µM) 106% and 91.1%; (compound 3.16 µM) 97.3% and 83.1%; (compound 10 µM) 25.9% and 22.8%. For the same compound, under “curve of compound”, the IC50 is 6770 nM and 5960 nM.
